Measurements as given in ChEMBL document CHEMBL1909046, “DrugMatrix in vitro pharmacology data”.

How the values were obtained:
[1] = target: T1, C-X-C chemokine receptor type 1 (Homo sapiens, UniProt P25024); further: in other assays of this panel Not Active means under 50% inhibition at 10 µM
T1 sequence (P25024 whole entry): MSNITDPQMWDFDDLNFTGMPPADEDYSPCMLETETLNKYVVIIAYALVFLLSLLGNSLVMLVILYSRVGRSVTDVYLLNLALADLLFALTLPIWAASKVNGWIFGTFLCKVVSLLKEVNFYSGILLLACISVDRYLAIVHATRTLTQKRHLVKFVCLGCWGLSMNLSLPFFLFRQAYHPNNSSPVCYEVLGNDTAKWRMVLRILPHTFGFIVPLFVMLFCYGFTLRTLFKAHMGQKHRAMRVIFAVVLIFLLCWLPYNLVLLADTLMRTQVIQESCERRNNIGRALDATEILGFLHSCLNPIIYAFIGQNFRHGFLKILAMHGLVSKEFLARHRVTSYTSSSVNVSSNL

[2] = target: T2, C-C chemokine receptor type 4 (Homo sapiens, UniProt P51679); assay type: cell membranes, Membrane; conditions: chem-1; further: in other assays of this panel Not Active means under 50% inhibition at 10 µM
T2 sequence (P51679 whole entry): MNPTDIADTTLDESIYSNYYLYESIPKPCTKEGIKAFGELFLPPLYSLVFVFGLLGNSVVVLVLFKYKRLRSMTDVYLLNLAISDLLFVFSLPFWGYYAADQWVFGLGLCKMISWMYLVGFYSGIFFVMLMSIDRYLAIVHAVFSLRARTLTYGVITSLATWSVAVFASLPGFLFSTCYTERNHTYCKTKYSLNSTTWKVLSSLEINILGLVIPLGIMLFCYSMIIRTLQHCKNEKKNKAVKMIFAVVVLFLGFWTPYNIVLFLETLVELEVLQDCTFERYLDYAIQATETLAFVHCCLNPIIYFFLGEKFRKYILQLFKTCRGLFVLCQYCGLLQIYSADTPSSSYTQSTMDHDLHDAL

[3] = DRUGMATRIX: Calcium Channel Type L, Benzothiazepine radioligand binding (ligand: [3H] Diltiazem); assay type: cell membranes, Rattus norvegicus, Wistar, Brain, Membrane; conditions: Not Active = under 50% inhibition at 10 µM
[4] = target: T3, Alpha-1A adrenergic receptor (Rattus norvegicus, UniProt P43140); experiment: DRUGMATRIX: Alpha-1A adrenergic receptor radioligand binding (ligand: prazosin); assay type: cell membranes, Wistar, Submaxillary gland, Membrane; conditions: Not Active = under 50% inhibition at 10 µM
T3 sequence (P43140 whole entry): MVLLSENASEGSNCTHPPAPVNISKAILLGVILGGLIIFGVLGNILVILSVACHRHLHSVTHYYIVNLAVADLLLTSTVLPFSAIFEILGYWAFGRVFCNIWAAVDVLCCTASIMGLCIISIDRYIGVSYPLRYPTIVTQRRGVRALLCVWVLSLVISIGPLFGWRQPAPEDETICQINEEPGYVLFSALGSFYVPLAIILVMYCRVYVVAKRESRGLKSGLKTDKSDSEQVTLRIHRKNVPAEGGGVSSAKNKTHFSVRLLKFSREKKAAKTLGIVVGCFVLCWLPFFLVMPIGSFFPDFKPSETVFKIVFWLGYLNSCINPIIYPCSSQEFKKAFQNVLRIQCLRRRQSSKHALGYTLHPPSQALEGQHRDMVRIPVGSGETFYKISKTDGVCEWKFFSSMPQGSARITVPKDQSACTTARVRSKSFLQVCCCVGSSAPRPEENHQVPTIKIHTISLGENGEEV

[5] = target: T4, Cholecystokinin receptor type A (Homo sapiens, UniProt P32238); assay type: cell membranes, Membrane; conditions: 1321-n1; further: in other assays of this panel Not Active means under 50% inhibition at 10 µM
T4 sequence (P32238 whole entry): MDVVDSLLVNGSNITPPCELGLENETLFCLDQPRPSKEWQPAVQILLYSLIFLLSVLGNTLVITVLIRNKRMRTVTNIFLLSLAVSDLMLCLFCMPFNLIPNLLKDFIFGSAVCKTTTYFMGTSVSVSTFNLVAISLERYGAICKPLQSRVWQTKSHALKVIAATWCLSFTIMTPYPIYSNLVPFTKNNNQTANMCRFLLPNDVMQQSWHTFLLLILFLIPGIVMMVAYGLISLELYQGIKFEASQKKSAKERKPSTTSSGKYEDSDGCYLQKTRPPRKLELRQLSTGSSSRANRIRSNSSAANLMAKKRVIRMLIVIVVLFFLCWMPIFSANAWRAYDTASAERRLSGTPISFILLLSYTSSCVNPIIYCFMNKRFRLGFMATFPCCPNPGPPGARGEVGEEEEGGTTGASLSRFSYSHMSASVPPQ

[6] = target: C-C chemokine receptor type 5 (Homo sapiens, UniProt P51681); assay type: cell membranes, Membrane; conditions: hek293; further: in other assays of this panel Not Active means under 50% inhibition at 10 µM
[7] = target: 5-hydroxytryptamine receptor 1B (Rattus norvegicus, UniProt P28564); assay type: cell membranes, Wistar, Cerebral cortex, Membrane; further: in other assays of this panel Not Active means under 50% inhibition at 10 µM
Sequence of 5-hydroxytryptamine receptor 1B (P28564 whole entry): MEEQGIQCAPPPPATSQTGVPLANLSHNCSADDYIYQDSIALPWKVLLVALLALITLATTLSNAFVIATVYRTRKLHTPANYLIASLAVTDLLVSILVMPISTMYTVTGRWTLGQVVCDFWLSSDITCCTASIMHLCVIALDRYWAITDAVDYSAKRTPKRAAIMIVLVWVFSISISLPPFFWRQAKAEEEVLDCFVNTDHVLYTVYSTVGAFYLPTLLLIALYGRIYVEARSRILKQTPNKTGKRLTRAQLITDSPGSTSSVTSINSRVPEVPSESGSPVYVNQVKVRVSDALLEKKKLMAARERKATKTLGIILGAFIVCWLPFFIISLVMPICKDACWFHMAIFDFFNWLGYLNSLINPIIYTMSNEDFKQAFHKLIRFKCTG

Sequence of C-C chemokine receptor type 5 (P51681 whole entry): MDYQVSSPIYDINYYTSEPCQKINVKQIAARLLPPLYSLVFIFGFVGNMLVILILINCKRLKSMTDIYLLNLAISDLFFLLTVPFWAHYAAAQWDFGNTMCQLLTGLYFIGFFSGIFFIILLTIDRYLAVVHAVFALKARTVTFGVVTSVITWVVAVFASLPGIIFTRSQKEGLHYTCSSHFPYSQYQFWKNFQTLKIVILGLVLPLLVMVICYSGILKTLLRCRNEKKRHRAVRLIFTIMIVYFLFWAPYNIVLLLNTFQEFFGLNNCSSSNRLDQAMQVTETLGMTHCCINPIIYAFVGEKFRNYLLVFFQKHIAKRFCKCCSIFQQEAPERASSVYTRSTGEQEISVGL

Row | Compound | IC50 [1] | IC50 [2] | IC50 [3] | Ki [3] | IC50 [4] | IC50 [5] | IC50 [6] | IC50 [7] | IC50 ([4]; read-out: IC50) | Ki ([4]; read-out: Ki)
1 | Nc1ccn([C@@H]2O[C@H](CO)[C@@H](O)C2(F)F)c(=O)n1 [GEMCITABINE] | Not Active | Not Active | Not Active | Not Active | Not Active | Not Active | Not Active | Not Active |  | 
2 | CC(C)=CCC/C(C)=C/CO [GERANIOL] | Not Active | Not Active | Not Active | Not Active | Not Active | Not Active | Not Active | Not Active |  | 
3 | N=C(N)NC(=O)Cc1c(Cl)cccc1Cl [GUANFACINE] | Not Active | Not Active | Not Active | Not Active |  | Not Active | Not Active | Not Active | 1350 nM | 546 nM
4 | Oc1c(Cl)cc(Cl)c(Cl)c1Cc1c(O)c(Cl)cc(Cl)c1Cl [HEXACHLOROPHENE] | Not Active | Not Active | Not Active | Not Active | Not Active | Not Active | Not Active | Not Active |  | 
5 | NNc1nncc2ccccc12 [HYDRALAZINE] | Not Active | Not Active | Not Active | Not Active | Not Active | Not Active | Not Active | Not Active |  | 
6 | CC(=O)[C@@]1(O)CC[C@H]2[C@@H]3CCC4=CC(=O)CC[C@]4(C)[C@H]3CC[C@@]21C [HYDROXYPROGESTERONE] | Not Active | Not Active | Not Active | Not Active | Not Active | Not Active | Not Active | Not Active |  | 
7 | COC1=C(OC)C(=O)C(CCCCCCCCCCO)=C(C)C1=O [IDEBENONE] | Not Active | Not Active | Not Active | Not Active | Not Active | Not Active | Not Active | Not Active |  | 
8 | CC(C)NNC(=O)c1ccncc1 [IPRONIAZID] | Not Active | Not Active | Not Active | Not Active | Not Active | Not Active | Not Active | Not Active |  | 
9 | Cc1c(OCC(F)(F)F)ccnc1C[S+]([O-])c1nc2ccccc2[nH]1 (stereo unspecified) [LANSOPRAZOLE] | Not Active | Not Active | Not Active | Not Active | Not Active | Not Active | Not Active | Not Active |  | 
10 | O=c1cc(N2CCOCC2)oc2c(-c3ccccc3)cccc12 [LY-294002] | Not Active | Not Active | Not Active | Not Active | Not Active | Not Active | Not Active | Not Active |  | 
11 | COc1ccc2[nH]cc(CCNC(C)=O)c2c1 [MELATONIN] | Not Active | Not Active | Not Active | Not Active | Not Active | Not Active | Not Active | Not Active |  | 
12 | NC(=O)C[S+]([O-])C(c1ccccc1)c1ccccc1 (stereo unspecified) [MODAFINIL] | Not Active | Not Active | Not Active | Not Active | Not Active | Not Active | Not Active | Not Active |  | 
13 | CCN(CC)CCOCCC1=CCC2CC1C2(C)C (stereo unspecified) [MYRTECAINE] | Not Active | Not Active | Not Active | Not Active | Not Active | Not Active | Not Active | Not Active |  | 
14 | O=C(O)c1cccnc1Nc1cccc(C(F)(F)F)c1 [NIFLUMIC ACID] | Not Active | Not Active | Not Active | Not Active | Not Active | Not Active | Not Active | Not Active |  | 
15 | O=C(N/N=C/c1ccc([N+](=O)[O-])o1)c1cc([N+](=O)[O-])cc([N+](=O)[O-])c1O [NIFURSOL] | Not Active | Not Active | Not Active | Not Active | Not Active | Not Active | Not Active | Not Active |  | 
16 | COC(=O)Nc1nc2ccc(C(=O)c3cccs3)cc2[nH]1 [NOCODAZOLE] | Not Active | Not Active | Not Active | Not Active | Not Active | Not Active | Not Active | Not Active |  | 
17 | C#CC1(O)CC[C@H]2[C@@H]3CCC4=CC(=O)CC[C@@H]4[C@H]3CC[C@@]21CC (stereo partly specified) [NORGESTREL] | Not Active | Not Active | Not Active | Not Active | Not Active | Not Active | Not Active | Not Active |  | 
18 | COC(=O)Nc1nc2ccc([S+]([O-])c3ccccc3)cc2[nH]1 (stereo unspecified) [OXFENDAZOLE] | Not Active | Not Active | Not Active | Not Active | Not Active | Not Active | Not Active | Not Active |  | 
19 | C[n+]1ccc(-c2cc[n+](C)cc2)cc1.[Cl-].[Cl-] [PARAQUAT DICHLORIDE] | Not Active | Not Active | Not Active | Not Active | Not Active | Not Active | Not Active | Not Active |  | 
20 | CC(C)NCC(O)COc1cccc2[nH]ccc12 (stereo unspecified) [PINDOLOL] | Not Active | Not Active | Not Active | Not Active | Not Active | Not Active | Not Active | Not Active |  | 
21 | CCn1cc(C(=O)O)c(=O)c2cnc(N3CCCC3)nc21 [PIROMIDIC ACID] | Not Active | Not Active | Not Active | Not Active | Not Active | Not Active | Not Active | Not Active |  | 
22 | C[n+]1ccccc1/C=N/O.[Cl-] [PRALIDOXIME CHLORIDE] | Not Active | Not Active | Not Active | Not Active | Not Active | Not Active | Not Active | Not Active |  | 
23 | C[C@]12C=CC(=O)C=C1CC[C@@H]1[C@@H]2[C@@H](O)C[C@@]2(C)[C@H]1CC[C@]2(O)C(=O)CO [PREDNISOLONE] | Not Active | Not Active | Not Active | Not Active | Not Active | Not Active | Not Active | Not Active |  | 
24 | CC(=O)[C@H]1[C@H](C#N)C[C@H]2[C@@H]3CC=C4C[C@@H](O)CC[C@]4(C)[C@H]3CC[C@@]21C [PREGNENOLONE CARBONITRILE] | Not Active | Not Active | Not Active | Not Active | Not Active | Not Active | Not Active | Not Active |  | 
25 | CCCN(CCC)S(=O)(=O)c1ccc(C(=O)O)cc1 [PROBENECID] | Not Active | Not Active | Not Active | Not Active | Not Active | Not Active | Not Active | Not Active |  | 
